Assay results as given in patent US20230074545A1, “TREATMENT OF CANCER WITH CDK12/13 INHIBITORS” (Kinnate Biopharma Inc., priority 2019, published 2023).

Legend:
Assay in all cases: Radiometric kinase panel
Assay type in all cases: biochemical
BRAF = molecular target: T1, BRAF (Homo sapiens, UniProt P15056)
T1 construct: purchased ProQinase GmbH (Reaction Biology)
How it was run: (§1)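 Activity was measured radiometrically from [gamma-33P]-ATP incorporation into substrate. The kinases were recombinant human GST- or His-tagged proteins, full-length or active fragments, expressed in Sf9 or E. coli. Compound in 10% DMSO was added before the enzyme/substrate mix, which started the reaction.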

CAMK2B = molecular target: T2, CAMK2B (Homo sapiens, UniProt Q13554)
T2 construct: either as full-length or enzymatically active fragments; purchased ProQinase GmbH (Reaction Biology)
How it was run: as §1

CDC7/DBF4 = molecular target: T3, CDC7/DBF4 (Homo sapiens, UniProt O00311)
T3 construct: purchased ProQinase GmbH (Reaction Biology)
How it was run: as §1

CDK6/CycD1 = molecular target: T4, CDK6/CycD1 (Homo sapiens, UniProt Q00534)
T4 construct: purchased ProQinase GmbH (Reaction Biology); host or cells: Sf9 insect cells or E. coli (not specified per kinase)
How it was run: as §1

CDK6/CycD2 = molecular target: T5, CDK6/CycD2 (Homo sapiens, UniProt Q00534)
T5 construct: either as full-length or enzymatically active fragments; purchased ProQinase GmbH (Reaction Biology)
How it was run: as §1

CDK7/CycH/MAT1 = molecular target: T6, CDK7/CycH/MAT1 (Homo sapiens, UniProt P50613)
T6 construct: either as full-length or enzymatically active fragments; purchased ProQinase GmbH (Reaction Biology)
How it was run: as §1

CK1epsilon = molecular target: T7, CK1epsilon (Homo sapiens, UniProt P49674)
T7 construct: either as full-length or enzymatically active fragments; purchased ProQinase GmbH (Reaction Biology)
How it was run: as §1

CK1gamma2 = molecular target: T8, CK1gamma2 (Homo sapiens, UniProt P78368)
T8 construct: purchased ProQinase GmbH (Reaction Biology)
How it was run: as §1

EPHB1 = molecular target: T9, EPHB1 (Homo sapiens, UniProt P54762)
T9 construct: either as full-length or enzymatically active fragments; purchased ProQinase GmbH (Reaction Biology)
How it was run: as §1

FGFR4 = molecular target: T10, FGFR4 (Homo sapiens, UniProt P22455)
T10 construct: either as full-length or enzymatically active fragments; purchased ProQinase GmbH (Reaction Biology)
How it was run: as §1

FLT3 = molecular target: T11, FLT3 (Homo sapiens, UniProt P36888)
T11 construct: either as full-length or enzymatically active fragments; purchased ProQinase GmbH (Reaction Biology)
How it was run: as §1

GRK2 = molecular target: T12, GRK2 (Homo sapiens, UniProt P25098)
T12 construct: either as full-length or enzymatically active fragments; purchased ProQinase GmbH (Reaction Biology)
How it was run: as §1

GRK3 = molecular target: T13, GRK3 (Homo sapiens, UniProt P35626)
T13 construct: either as full-length or enzymatically active fragments; purchased ProQinase GmbH (Reaction Biology)
How it was run: as §1

GRK4 = molecular target: T14, GRK4 (Homo sapiens, UniProt P32298)
T14 construct: either as full-length or enzymatically active fragments; purchased ProQinase GmbH (Reaction Biology)
How it was run: as §1

HCK = molecular target: T15, HCK (Homo sapiens, UniProt P08631)
T15 construct: purchased ProQinase GmbH (Reaction Biology)
How it was run: as §1

HIPK3 = molecular target: T16, HIPK3 (Homo sapiens, UniProt Q9H422)
T16 construct: either as full-length or enzymatically active fragments; purchased ProQinase GmbH (Reaction Biology)
How it was run: as §1

LIMK1 = molecular target: T17, LIMK1 (Homo sapiens, UniProt P53667)
T17 construct: either as full-length or enzymatically active fragments; purchased ProQinase GmbH (Reaction Biology)
How it was run: as §1

MAP3K10 = molecular target: T18, MAP3K10 (Homo sapiens, UniProt Q02779)
T18 construct: either as full-length or enzymatically active fragments; purchased ProQinase GmbH (Reaction Biology)
How it was run: as §1

MAP4K4 = molecular target: T19, MAP4K4 (Homo sapiens, UniProt O95819)
T19 construct: purchased ProQinase GmbH (Reaction Biology)
How it was run: as §1

MARK1 = molecular target: T20, MARK1 (Homo sapiens, UniProt Q9P0L2)
T20 construct: purchased ProQinase GmbH (Reaction Biology)
How it was run: as §1

MEKK2 = molecular target: T21, MEKK2 (Homo sapiens, UniProt Q9Y2U5)
T21 construct: either as full-length or enzymatically active fragments; purchased ProQinase GmbH (Reaction Biology)
How it was run: as §1

MET = molecular target: T22, MET (Homo sapiens, UniProt P08581)
T22 construct: purchased ProQinase GmbH (Reaction Biology); host or cells: Sf9 insect cells or E. coli (not specified per kinase)
How it was run: as §1

MYLK2 = molecular target: T23, MYLK2 (Homo sapiens, UniProt Q9H1R3)
T23 construct: either as full-length or enzymatically active fragments; purchased ProQinase GmbH (Reaction Biology); host or cells: Sf9 insect cells or E. coli
How it was run: as §1

NEK9 = molecular target: T24, NEK9 (Homo sapiens, UniProt Q8TD19)
T24 construct: either as full-length or enzymatically active fragments; purchased ProQinase GmbH (Reaction Biology)
How it was run: as §1

PHKG1 = molecular target: T25, PHKG1 (Homo sapiens, UniProt Q16816)
T25 construct: either as full-length or enzymatically active fragments; purchased ProQinase GmbH (Reaction Biology)
How it was run: as §1

PKCalpha = molecular target: T26, PKCalpha (Homo sapiens, UniProt P17252)
T26 construct: either as full-length or enzymatically active fragments; purchased ProQinase GmbH (Reaction Biology)
How it was run: as §1

PRKG1 = molecular target: T27, PRKG1 (Homo sapiens, UniProt Q13976)
T27 construct: either as full-length or enzymatically active fragments; purchased ProQinase GmbH (Reaction Biology)
How it was run: as §1

RIPK5 = molecular target: T28, RIPK5 (Homo sapiens, UniProt Q6XUX3)
T28 construct: purchased ProQinase GmbH (Reaction Biology)
How it was run: as §1

TBK1 = molecular target: T29, TBK1 (Homo sapiens, UniProt Q9UHD2)
T29 construct: either as full-length or enzymatically active fragments; purchased ProQinase GmbH (Reaction Biology)
How it was run: as §1

TIE2 = molecular target: T30, TIE2 (Homo sapiens, UniProt Q02763)
T30 construct: either as full-length or enzymatically active fragments; purchased ProQinase GmbH (Reaction Biology); host or cells: Sf9 insect cells or E. coli
How it was run: as §1

ZAK = molecular target: T31, ZAK (Homo sapiens, UniProt Q9NYL2)
T31 construct: either as full-length or enzymatically active fragments; purchased ProQinase GmbH (Reaction Biology)
How it was run: as §1

T6 sequence (P50613 whole entry, the tested form may be a part): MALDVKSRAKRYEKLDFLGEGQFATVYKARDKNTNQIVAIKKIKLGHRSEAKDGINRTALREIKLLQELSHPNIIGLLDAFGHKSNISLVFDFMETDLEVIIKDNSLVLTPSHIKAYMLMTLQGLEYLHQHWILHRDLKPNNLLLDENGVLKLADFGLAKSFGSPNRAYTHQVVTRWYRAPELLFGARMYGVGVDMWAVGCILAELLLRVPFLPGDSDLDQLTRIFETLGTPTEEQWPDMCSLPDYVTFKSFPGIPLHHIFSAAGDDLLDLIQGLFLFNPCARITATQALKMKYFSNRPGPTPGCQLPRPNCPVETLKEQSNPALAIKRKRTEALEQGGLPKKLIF
T6 sequence (P51946 whole entry partner, the tested form may be a part): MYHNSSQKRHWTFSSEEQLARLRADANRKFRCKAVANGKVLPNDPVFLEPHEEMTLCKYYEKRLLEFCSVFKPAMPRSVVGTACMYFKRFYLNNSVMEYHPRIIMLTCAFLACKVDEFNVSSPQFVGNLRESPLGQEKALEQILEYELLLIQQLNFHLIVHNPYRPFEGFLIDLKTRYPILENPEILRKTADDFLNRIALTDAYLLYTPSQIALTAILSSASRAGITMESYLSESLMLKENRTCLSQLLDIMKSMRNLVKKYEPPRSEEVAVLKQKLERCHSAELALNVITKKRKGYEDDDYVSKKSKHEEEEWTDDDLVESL
T6 sequence (P51948 whole entry partner, the tested form may be a part): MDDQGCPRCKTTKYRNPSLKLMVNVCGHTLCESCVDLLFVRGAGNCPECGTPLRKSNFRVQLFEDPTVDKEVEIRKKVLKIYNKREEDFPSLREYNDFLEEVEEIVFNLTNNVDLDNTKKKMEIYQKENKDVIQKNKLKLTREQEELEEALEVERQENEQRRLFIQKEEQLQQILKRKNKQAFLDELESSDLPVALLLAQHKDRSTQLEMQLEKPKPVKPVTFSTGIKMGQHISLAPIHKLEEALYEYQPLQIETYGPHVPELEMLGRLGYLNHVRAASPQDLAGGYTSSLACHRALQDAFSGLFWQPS
T7 sequence (P49674 whole entry, the tested form may be a part): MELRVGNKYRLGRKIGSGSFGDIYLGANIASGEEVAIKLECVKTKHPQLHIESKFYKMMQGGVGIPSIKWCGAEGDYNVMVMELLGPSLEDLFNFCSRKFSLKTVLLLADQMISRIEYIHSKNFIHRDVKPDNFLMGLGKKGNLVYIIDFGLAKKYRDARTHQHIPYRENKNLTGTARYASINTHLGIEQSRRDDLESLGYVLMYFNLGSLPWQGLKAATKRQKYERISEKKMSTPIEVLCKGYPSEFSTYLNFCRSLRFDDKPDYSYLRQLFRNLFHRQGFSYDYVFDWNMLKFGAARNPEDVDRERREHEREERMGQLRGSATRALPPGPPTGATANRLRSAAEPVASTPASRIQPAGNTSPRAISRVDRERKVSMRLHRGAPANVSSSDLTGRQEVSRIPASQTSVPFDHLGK
T2 sequence (Q13554 whole entry, the tested form may be a part): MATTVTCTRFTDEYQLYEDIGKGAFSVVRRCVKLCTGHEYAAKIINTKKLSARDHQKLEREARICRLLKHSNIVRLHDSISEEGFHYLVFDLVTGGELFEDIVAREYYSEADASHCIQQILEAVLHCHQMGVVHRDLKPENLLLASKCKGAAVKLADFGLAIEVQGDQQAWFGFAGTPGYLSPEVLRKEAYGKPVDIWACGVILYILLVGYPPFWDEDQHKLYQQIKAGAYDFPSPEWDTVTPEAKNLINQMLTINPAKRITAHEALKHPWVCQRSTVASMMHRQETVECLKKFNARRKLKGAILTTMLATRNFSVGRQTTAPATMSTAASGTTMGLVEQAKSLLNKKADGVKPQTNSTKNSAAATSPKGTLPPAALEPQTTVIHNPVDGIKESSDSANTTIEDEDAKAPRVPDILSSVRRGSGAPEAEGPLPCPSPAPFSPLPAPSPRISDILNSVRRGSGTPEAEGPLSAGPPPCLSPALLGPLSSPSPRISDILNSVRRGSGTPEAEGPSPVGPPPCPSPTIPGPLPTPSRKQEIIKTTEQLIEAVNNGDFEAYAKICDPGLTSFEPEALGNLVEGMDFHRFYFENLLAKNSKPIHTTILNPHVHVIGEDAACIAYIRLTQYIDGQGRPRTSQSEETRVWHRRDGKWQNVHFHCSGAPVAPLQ
T12 sequence (P25098 whole entry, the tested form may be a part): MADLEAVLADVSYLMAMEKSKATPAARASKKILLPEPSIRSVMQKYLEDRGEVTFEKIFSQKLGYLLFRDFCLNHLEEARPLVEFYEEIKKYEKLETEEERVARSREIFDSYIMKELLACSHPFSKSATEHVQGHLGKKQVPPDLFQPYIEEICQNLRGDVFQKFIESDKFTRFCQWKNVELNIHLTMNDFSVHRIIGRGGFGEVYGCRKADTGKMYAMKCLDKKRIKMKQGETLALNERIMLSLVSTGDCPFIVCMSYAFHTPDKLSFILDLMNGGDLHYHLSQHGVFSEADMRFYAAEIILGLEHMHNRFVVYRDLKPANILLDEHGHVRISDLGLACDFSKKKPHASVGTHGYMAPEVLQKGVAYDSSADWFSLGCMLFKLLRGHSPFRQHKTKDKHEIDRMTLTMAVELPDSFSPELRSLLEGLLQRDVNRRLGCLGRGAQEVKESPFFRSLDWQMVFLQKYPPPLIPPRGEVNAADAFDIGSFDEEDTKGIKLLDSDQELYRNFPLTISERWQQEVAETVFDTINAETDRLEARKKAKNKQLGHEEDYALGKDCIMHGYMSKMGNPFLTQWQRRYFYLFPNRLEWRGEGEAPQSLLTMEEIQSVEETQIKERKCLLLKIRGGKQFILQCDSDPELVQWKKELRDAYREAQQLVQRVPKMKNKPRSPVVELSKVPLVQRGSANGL
T30 sequence (Q02763 23-1124): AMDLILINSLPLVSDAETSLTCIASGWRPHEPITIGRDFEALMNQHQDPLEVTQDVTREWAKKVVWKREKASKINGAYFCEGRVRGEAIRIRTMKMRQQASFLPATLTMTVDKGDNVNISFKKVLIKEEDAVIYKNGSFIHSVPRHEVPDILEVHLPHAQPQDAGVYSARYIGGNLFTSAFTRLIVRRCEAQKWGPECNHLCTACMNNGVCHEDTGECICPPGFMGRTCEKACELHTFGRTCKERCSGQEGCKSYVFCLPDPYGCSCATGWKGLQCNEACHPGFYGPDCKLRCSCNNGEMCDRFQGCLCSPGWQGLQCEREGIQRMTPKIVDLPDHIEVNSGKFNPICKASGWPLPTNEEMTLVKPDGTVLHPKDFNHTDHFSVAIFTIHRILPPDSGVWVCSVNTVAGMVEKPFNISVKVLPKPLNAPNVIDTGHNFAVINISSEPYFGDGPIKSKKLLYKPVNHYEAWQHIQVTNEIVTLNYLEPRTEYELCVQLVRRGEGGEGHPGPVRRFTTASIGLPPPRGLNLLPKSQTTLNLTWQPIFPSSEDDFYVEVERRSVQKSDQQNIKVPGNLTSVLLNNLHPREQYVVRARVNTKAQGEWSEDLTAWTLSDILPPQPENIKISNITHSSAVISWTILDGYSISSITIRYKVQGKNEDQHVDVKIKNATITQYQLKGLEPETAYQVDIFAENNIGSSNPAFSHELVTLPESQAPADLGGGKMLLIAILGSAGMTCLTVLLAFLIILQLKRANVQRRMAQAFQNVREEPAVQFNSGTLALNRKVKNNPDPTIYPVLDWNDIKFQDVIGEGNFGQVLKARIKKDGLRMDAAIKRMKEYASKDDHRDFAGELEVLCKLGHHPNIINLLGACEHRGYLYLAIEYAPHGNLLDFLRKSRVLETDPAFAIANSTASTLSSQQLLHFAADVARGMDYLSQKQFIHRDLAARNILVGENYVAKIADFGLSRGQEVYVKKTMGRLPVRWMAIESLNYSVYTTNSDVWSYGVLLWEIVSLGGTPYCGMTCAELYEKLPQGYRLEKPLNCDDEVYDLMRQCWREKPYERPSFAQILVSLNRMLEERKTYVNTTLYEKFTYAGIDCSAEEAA
T25 sequence (Q16816 whole entry, the tested form may be a part): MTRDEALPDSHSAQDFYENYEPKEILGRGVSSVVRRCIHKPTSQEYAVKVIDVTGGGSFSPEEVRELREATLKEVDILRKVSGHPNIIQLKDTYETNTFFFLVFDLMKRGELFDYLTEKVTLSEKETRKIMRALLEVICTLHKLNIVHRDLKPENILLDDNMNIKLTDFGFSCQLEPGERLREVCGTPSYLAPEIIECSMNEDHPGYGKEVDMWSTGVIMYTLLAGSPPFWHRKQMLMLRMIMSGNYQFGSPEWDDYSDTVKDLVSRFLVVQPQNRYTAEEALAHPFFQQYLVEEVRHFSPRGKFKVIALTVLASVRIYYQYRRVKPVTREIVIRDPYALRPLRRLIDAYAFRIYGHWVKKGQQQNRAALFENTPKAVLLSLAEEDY

C=CC(=O)Nc1ccc(C(=O)N2CC[C@@H](Nc3ncc(C#N)cn3)C2)cc1 [Compound 4, (R)-N-(4-(3-((5-cyanopyrimidin-2-yl)amino)pyrrolidine-1-carbonyl)phenyl)acrylamide]
inhibition at 1 µM (BRAF): 0%
inhibition at 1 µM (CAMK2B): -12%
inhibition at 1 µM (CDC7/DBF4): -2%
inhibition at 1 µM (CDK6/CycD1): 1%
inhibition at 1 µM (CDK6/CycD2): -14%
inhibition at 1 µM (CDK7/CycH/MAT1): 33%
inhibition at 1 µM (CK1epsilon): -13%
inhibition at 1 µM (CK1gamma2): -1%
inhibition at 1 µM (EPHB1): -3%
inhibition at 1 µM (FGFR4): 2%
inhibition at 1 µM (FLT3): -8%
inhibition at 1 µM (GRK2): 7%
inhibition at 1 µM (GRK3): 5%
inhibition at 1 µM (GRK4): -13%
inhibition at 1 µM (HCK): 0%
inhibition at 1 µM (HIPK3): -7%
inhibition at 1 µM (LIMK1): 7%
inhibition at 1 µM (MAP3K10): -5%
inhibition at 1 µM (MAP4K4): 0%
inhibition at 1 µM (MARK1): 0%
inhibition at 1 µM (MEKK2): 8%
inhibition at 1 µM (MET): 0%
inhibition at 1 µM (MYLK2): 12%
inhibition at 1 µM (NEK9): -5%
inhibition at 1 µM (PHKG1): 18%
inhibition at 1 µM (PKCalpha): -5%
inhibition at 1 µM (PRKG1): -12%
inhibition at 1 µM (RIPK5): 0%
inhibition at 1 µM (TBK1): -4%
inhibition at 1 µM (TIE2): -18%
inhibition at 1 µM (ZAK): -4%
